Assay results published in ChEMBL document CHEMBL5728630, “Aryl, heteroaryl, and heterocyclic pharmaceutical compounds for treatment of medical disorders” (2021).

Target: Complement factor D (Homo sapiens, UniProt P00746)
Assay: Factor D Assay: Human Factor D (purified from human serum, Complement Technology, Inc.) at 80 nM final concentration is incubated with test compound at various concentrations for 5 min at room temperature in 50 mM Tris, 1M NaCl, pH 7.5. A synthetic substrate Z-L-Lys-SBz and DTNB (Ellman's reagent) are added to final concentrations of 100 μM each. Absorbance at 405 nm (A405) is recorded at 30 second intervals for 30 min using a microplate spectrophotometer. IC50 values are calculated by nonlinear regression of complement Factor D reaction rates as a function of test compound concentration.

Chain of Complement factor D (P00746 whole entry): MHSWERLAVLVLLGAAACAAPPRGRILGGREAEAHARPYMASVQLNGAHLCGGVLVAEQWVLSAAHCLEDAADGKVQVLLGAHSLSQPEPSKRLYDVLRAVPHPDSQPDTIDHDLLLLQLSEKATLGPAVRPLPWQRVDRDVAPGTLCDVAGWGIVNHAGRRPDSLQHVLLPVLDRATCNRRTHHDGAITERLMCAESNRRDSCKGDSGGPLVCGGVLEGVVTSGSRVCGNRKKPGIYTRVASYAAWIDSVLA

SMILES: CC(=O)c1nn(CC(=O)N2[C@H](C(=O)Nc3nc(Br)ccc3C)C[C@@]3(CF)C[C@@H]23)c2c(C)cc(-c3cnc(C)nc3)cc12
- IC50: < 1000 nM

SMILES: CC(=O)c1nn(CC(=O)N2[C@H](C(=O)Nc3nc(Br)ccc3CCCF)C[C@@]3(C)C[C@@H]23)c2cnc(-c3cnc(C)nc3)cc12
- IC50: < 1000 nM

SMILES: CC(=O)c1nn(CC(=O)N2[C@H](C(=O)Nc3nc(Br)ccc3CN3CCc4ccccc4C3)C[C@@]3(C)C[C@@H]23)c2cnc(-c3cnc(C)nc3)cc12
- IC50: < 1000 nM

SMILES: CC(=O)c1nn(CC(=O)N2[C@H](C(=O)Nc3nc(Br)ccc3C)C[C@@]3(C)C[C@@H]23)c2c(C(C)F)cc(-c3cnc(C)nc3)cc12 (stereo not given in full)
- IC50: < 1000 nM

SMILES: CC(=O)c1nn(CC(=O)N2[C@H](C(=O)Nc3nc(Br)ccc3C)C[C@@]3(C)C[C@@H]23)c2c(C)cc(-c3cnc(C4(F)COC4)nc3)cc12
- IC50: < 1000 nM

SMILES: CC(=O)c1nn(CC(=O)N2[C@H](C(=O)Nc3nc(Br)ccc3C)C[C@@]3(C)C[C@@H]23)c2ccc(-c3cnc(O)nc3)cc12
- IC50: < 1000 nM

SMILES: COCc1ccc(Br)nc1NC(=O)[C@@H]1C[C@@]2(C)C[C@H]2N1C(=O)Cn1nc(C(C)=O)c2cc(-c3cnc(C)nc3)cc(COC)c21
- IC50: < 1000 nM

SMILES: COc1ncc(-c2cc3c(C(C)=O)nn(CC(=O)N4[C@H](C(=O)Nc5nc(Br)ccc5C)C[C@@]5(C)C[C@@H]45)c3c(C)n2)cn1
- IC50: < 1000 nM

SMILES: CC(=O)c1nn(CC(=O)N2[C@H](C(=O)Nc3nc(Br)ccc3C)C[C@@]3(CN4CC(F)(F)C4)C[C@@H]23)c2cnc(-c3cnc(C)nc3)cc12
- IC50: < 1000 nM

SMILES: CC(=O)c1nn(CC(=O)N2[C@H](C(=O)Nc3nc(Br)ccc3C)C[C@@]3(C4COC(C)(C)O4)C[C@@H]23)c2cnc(-c3cnc(C)nc3)cc12 (stereo not given in full)
- IC50: < 1000 nM

SMILES: CC(=O)c1nn(CC(=O)N2[C@H](C(=O)Nc3cccc(-c4ccccc4Cl)c3F)C[C@@]3(C)C[C@@H]23)c2ccc(-c3cnc(C)nc3)cc12
- IC50: < 1000 nM

SMILES: COCc1ccc(Br)nc1NC(=O)[C@@H]1C[C@@]2(CNC(C)=O)C[C@H]2N1C(=O)Cn1nc(C(C)=O)c2cc(-c3cnc(C)nc3)ccc21
- IC50: < 1000 nM

SMILES: CC(=O)c1nn(CC(=O)N2[C@H](C(=O)Nc3nc(Br)ccc3C)C[C@@]3(CF)C[C@@H]23)c2cnc(-c3cnc(C)nc3)cc12
- IC50: < 1000 nM

SMILES: CC(=O)c1nn(CC(=O)N2[C@H](C(=O)Nc3cnc(C)c(Br)n3)C[C@@]3(C)C[C@@H]23)c2c(C)cc(-c3cnc(C)nc3)cc12
- IC50: < 1000 nM

SMILES: CC(=O)c1nn(CC(=O)N2[C@H](C(=O)Nc3nc(Br)ccc3C)C[C@@]3(CNC(=O)C4CCCC4(F)F)C[C@@H]23)c2ccc(-c3cnc(C)nc3)cc12 (stereo not given in full)
- IC50: < 1000 nM

SMILES: CC(=O)c1nn(CC(=O)N2[C@H](C(=O)N[C@H](C)[C@H]3CC3(Cl)Cl)C[C@@]3(C)C[C@@H]23)c2c(C)cc(-c3cnc(C)nc3)cc12
- IC50: < 1000 nM

SMILES: CC(=O)c1nn(CC(=O)N2[C@H](C(=O)Nc3nc(Br)ccc3C)C[C@@]3(C)C[C@@H]23)c2c(C3CC3)nc(-c3cnc(C)nc3)cc12
- IC50: < 1000 nM

SMILES: CC(=O)c1nn(CC(=O)N2[C@H](C(=O)Nc3nc(Br)ccc3C)C[C@@]3(CCCF)C[C@@H]23)c2cnc(-c3cnc(C)nc3)cc12
- IC50: < 1000 nM

SMILES: CC(=O)c1nn(CC(=O)N2[C@H](C(=O)Nc3nc(Br)ccc3C)C[C@@]3(/C=N/O)C[C@@H]23)c2cnc(-c3cnc(C)nc3)cc12
- IC50: < 1000 nM

SMILES: CC(=O)c1nn(CC(=O)N2[C@H](C(=O)Nc3cccc(Br)n3)C[C@@]3(C)C[C@@H]23)c2ccc(-c3cnc(O)nc3)cc12
- IC50: < 1000 nM

SMILES: CC(=O)c1nn(CC(=O)N2[C@H](C(=O)Nc3nc(Br)ccc3C)C[C@@]3(CN(C)C)C[C@@H]23)c2cnc(-c3cnc(C)nc3)cc12
- IC50: < 1000 nM

SMILES: CC[C@@]12C[C@@H](C(=O)Nc3nc(Br)ccc3C)N(C(=O)Cn3nc(C(C)=O)c4cc(-c5cnc(C)nc5)ncc43)[C@@H]1C2
- IC50: < 1000 nM

SMILES: C=CCCS(=O)(=O)NC[C@@]12C[C@@H](C(=O)Nc3nc(Br)ccc3C=C)N(C(=O)Cn3nc(C(C)=O)c4cc(-c5cnc(C)nc5)ccc43)[C@@H]1C2
- IC50: < 1000 nM

SMILES: CC(=O)c1nn(CC(=O)N2[C@H](C(=O)Nc3nc(Br)ccc3C)C[C@@]3(CC#N)C[C@@H]23)c2c(C)cc(-c3cnc(C)nc3)cc12
- IC50: < 1000 nM

SMILES: CC(=O)c1nn(CC(=O)N2[C@H](C(=O)Nc3nc(Br)ccc3C)C[C@@]3(C)C[C@@H]23)c2ccc(-c3cnc(OC4CS(=O)(=O)C4)nc3)cc12
- IC50: < 1000 nM

SMILES: CC(=O)c1nn(CC(=O)N2[C@H](C(=O)Nc3nc(Br)ccc3C)C[C@@]3(C)C[C@@H]23)c2c(C(F)(F)F)nc(-c3cnc(C)nc3)cc12
- IC50: < 1000 nM

SMILES: COC(=O)Cc1ccc(Br)nc1NC(=O)[C@@H]1C[C@@H](F)CN1C(=O)Cn1nc(C(C)=O)c2cc(-c3cnc(C)nc3)ccc21
- IC50: < 1000 nM

SMILES: COCc1ncc(-c2cc3c(C(C)=O)nn(CC(=O)N4[C@H](C(=O)Nc5nc(Br)ccc5C)C[C@@]5(C)C[C@@H]45)c3cn2)cn1
- IC50: < 1000 nM

SMILES: Cc1ncc(-c2ccc3c(c2)c(C(N)=O)nn3CC(=O)N2[C@H](C(=O)Nc3nc(Br)ccc3C)C[C@@]3(C)C[C@@H]23)cn1
- IC50: < 1000 nM

SMILES: CC(=O)c1nn(CC(=O)N2[C@H]3C[C@@]3(C)C[C@H]2C(=O)Nc2nc(Br)ccc2C)c2ccc(-c3cnc(C)nc3)cc12
- IC50: < 1000 nM

SMILES: CC(=O)c1nn(CC(=O)N2[C@H](C(=O)Nc3nc(Br)ccc3C)C[C@@]3(CC#N)C[C@@H]23)c2cnc(-c3cnc(C)nc3)cc12
- IC50: < 1000 nM

SMILES: CC(=O)c1nn(CC(=O)N2[C@H](C(=O)Nc3cccc(-c4ccccc4Cl)c3F)C[C@@]3(C)C[C@@H]23)c2c(C)cc(-c3cnc(C)nc3)cc12
- IC50: < 1000 nM

SMILES: CC(=O)c1nn(CC(=O)N2[C@H](C(=O)N[C@H](C)[C@H]3CC3(Cl)Cl)C[C@@]3(C)C[C@@H]23)c2cnc(-c3cnc(C)nc3)cc12
- IC50: < 1000 nM

SMILES: CC(=O)c1nn(CC(=O)N2[C@H](C(=O)Nc3nc(Br)ccc3C)C[C@@]3(CNC(=O)C4CCCC4(F)F)C[C@@H]23)c2c(C)cc(-c3cnc(C)nc3)cc12 (stereo not given in full)
- IC50: < 1000 nM

SMILES: CC(=O)c1nn(CC(=O)N2[C@H](C(=O)Nc3nc(Br)ccc3C)C[C@@]3(CNCc4ccccc4F)C[C@@H]23)c2c(C)cc(-c3cnc(C)nc3)cc12
- IC50: < 1000 nM

SMILES: COCc1ccc(Br)nc1NC(=O)[C@@H]1C[C@@]2(CN(C)C)C[C@H]2N1C(=O)Cn1nc(C(C)=O)c2cc(-c3cnc(C)nc3)ccc21
- IC50: < 1000 nM

SMILES: CC(=O)c1nn(CC(=O)N2C[C@H](F)C[C@H]2C(=O)Nc2nc(Br)ccc2C)c2ccc(-c3cnc(OC4CS(=O)(=O)C4)nc3)cc12
- IC50: < 1000 nM

SMILES: CC(=O)c1nn(CC(=O)N2[C@H](C(=O)Nc3nc(Br)ccc3C)C[C@@]3(C)C[C@@H]23)c2c(C)cc(-c3cnc(O)nc3)cc12
- IC50: < 1000 nM

SMILES: CC(=O)c1nn(CC(=O)N2[C@H](C(=O)Nc3nc(Br)ccc3C)C[C@@]3(CNCC(F)(F)F)C[C@@H]23)c2c(C)cc(-c3cnc(C)nc3)cc12
- IC50: < 1000 nM

SMILES: CC(=O)c1nn(CC(=O)N2[C@H](C(=O)Nc3nc(Br)ccc3C)C[C@@]3(CNC(=O)C(F)(F)F)C[C@@H]23)c2c(C)cc(-c3cnc(C)nc3)cc12
- IC50: < 1000 nM

SMILES: Cc1ncc(-c2cc(C)c3c(c2)c(C2COC2)nn3CC(=O)N2[C@H](C(=O)Nc3nc(Br)ccc3C)C[C@@]3(C)C[C@@H]23)cn1
- IC50: < 1000 nM

SMILES: CC(=O)c1nn(CC(=O)N2[C@H](C(=O)Nc3nc(Br)ccc3C)C[C@@]3(C)C[C@@H]23)c2cnc(-c3ccc(C)nc3F)cc12
- IC50: < 1000 nM

SMILES: CC(=O)c1nn(CC(=O)N2[C@H](C(=O)Nc3cccc(Br)n3)C[C@@]3(C)C[C@@H]23)c2ccc(-c3cnc(OC4CS(=O)(=O)C4)nc3)cc12
- IC50: < 1000 nM

SMILES: CC(=O)c1nn(CC(=O)N2[C@H](C(=O)Nc3nc(Br)ccc3C)C[C@@]3(C)C[C@@H]23)c2c(C)cc(-c3cnc(C4(O)COC4)nc3)cc12
- IC50: < 1000 nM

SMILES: COC[C@@]12C[C@@H](C(=O)Nc3nc(Br)ccc3C)N(C(=O)Cn3nc(C(C)=O)c4cc(-c5cnc(C)nc5)ncc43)[C@@H]1C2
- IC50: < 1000 nM

SMILES: CC(=O)c1nn(CC(=O)N2[C@H](C(=O)Nc3nc(Br)ccc3CN3CCC(C)(F)CC3)C[C@@]3(C)C[C@@H]23)c2cnc(-c3cnc(C)nc3)cc12
- IC50: < 1000 nM

SMILES: Cc1ncc(-c2cc3c(C(N)=O)nn(CC(=O)N4[C@H](C(=O)Nc5nc(Br)c(F)cc5C)C[C@@]5(C)C[C@@H]45)c3cn2)cn1
- IC50: < 1000 nM

SMILES: CC(=O)c1nn(CC(=O)N2[C@H](C(=O)Nc3nc(Br)ccc3C)C[C@@]3(C#N)C[C@@H]23)c2cnc(-c3cnc(C)nc3)cc12
- IC50: < 1000 nM

SMILES: CC(=O)c1nn(CC(=O)N2[C@H](C(=O)Nc3nc(Br)ccc3C)C[C@@]3(Cn4cc(C5CC5)nn4)C[C@@H]23)c2cnc(-c3cnc(C)nc3)cc12
- IC50: < 1000 nM

SMILES: CC(=O)c1nn(CC(=O)N2[C@H](C(=O)Nc3cccc(Br)n3)C[C@@]3(C)C[C@@H]23)c2c(C)cc(-c3cnc(C)nc3)cc12
- IC50: < 1000 nM

SMILES: CC(=O)c1nn(CC(=O)N2[C@H](C(=O)Nc3nc(Br)ccc3C)C[C@@]3(CNCc4ccccc4)C[C@@H]23)c2c(C)cc(-c3cnc(C)nc3)cc12
- IC50: < 1000 nM

SMILES: CC(=O)c1nn(CC(=O)N2[C@H](C(=O)Nc3nc(Br)ccc3COCCF)C[C@@]3(C)C[C@@H]23)c2cnc(-c3cnc(C)nc3)cc12
- IC50: < 1000 nM

SMILES: CC(=O)c1nn(CC(=O)N2[C@@H](C(=O)Nc3nc(Br)ccc3C)C[C@]3(C)C[C@H]23)c2ccc(-c3cnc(C)nc3)cc12
- IC50: > 10000 nM

SMILES: CC(=O)c1nn(CC(=O)N2[C@H](C(=O)Nc3nc(Br)ccc3C)C[C@@]3(CN4CC(O)C4)C[C@@H]23)c2c(C)cc(-c3cnc(C)nc3)cc12
- IC50: < 1000 nM

SMILES: CC(=O)c1nn(CC(=O)N2[C@H]3C[C@@]3(CF)C[C@H]2C(=O)Nc2nc(Br)ccc2C)c2cnc(-c3cnc(C)nc3)cc12
- IC50: < 1000 nM

SMILES: CC(=O)c1nn(CC(=O)N2[C@H](C(=O)N[C@@H](C)C(F)=C(C)C)C[C@@]3(C)C[C@@H]23)c2cnc(-c3cnc(C)nc3)cc12
- IC50: < 1000 nM

SMILES: C=CCCc1cc(-c2cnc(C)nc2)cc2c(C(C)=O)nn(CC(=O)N3[C@H](C(=O)Nc4nc(Br)ccc4C)C[C@@]4(COCC=C)C[C@@H]34)c12
- IC50: < 1000 nM

SMILES: CC(=O)c1nn(CC(=O)N2[C@H](C(=O)NCc3cccc(Cl)c3F)C[C@@]3(C)C[C@@H]23)c2c(C)cc(-c3cnc(C)nc3)cc12
- IC50: < 1000 nM

SMILES: CC(=O)c1nn(CC(=O)N2[C@H](C(=O)Nc3nc(Br)ccc3C)C[C@@]3(CN4CC(O)C4)C[C@@H]23)c2cnc(-c3cnc(C)nc3)cc12
- IC50: < 1000 nM

SMILES: CC(=O)c1nn(CC(=O)N2[C@H](C(=O)Nc3nc(Br)ccc3C)C[C@@]3(CCF)C[C@@H]23)c2cnc(-c3cnc(C)nc3)cc12
- IC50: < 1000 nM
